25 compounds from ChEMBL document CHEMBL1158433, “A novel class of H3 antagonists derived from the natural product guided synthesis of unnatural analogs of the marine bromopyrrole alkaloid dispyrin” (Bioorg Med Chem Lett, 2009) can be followed below.

Experiment [1] deals with T1, Histamine H3 receptor (Homo sapiens, UniProt Q9Y5N1). Nature of the experiment: Displacement of [3H]SMT from human histamine H3 receptor. (In general: Loss of bound radioactivity is the signal in a displacement assay; it reports binding, not function.)
Experiment [2] concerns the target T1, Histamine H3 receptor. Nature of the experiment: Ratio of dispyrin Ki to compound Ki for human histamine H3 receptor.
For experiment [3], the target named is T1, Histamine H3 receptor. Nature of the experiment: Ratio of dispyrin IC50 to compound IC50 for human histamine H3 receptor.

T1 sequence (Q9Y5N1 whole entry): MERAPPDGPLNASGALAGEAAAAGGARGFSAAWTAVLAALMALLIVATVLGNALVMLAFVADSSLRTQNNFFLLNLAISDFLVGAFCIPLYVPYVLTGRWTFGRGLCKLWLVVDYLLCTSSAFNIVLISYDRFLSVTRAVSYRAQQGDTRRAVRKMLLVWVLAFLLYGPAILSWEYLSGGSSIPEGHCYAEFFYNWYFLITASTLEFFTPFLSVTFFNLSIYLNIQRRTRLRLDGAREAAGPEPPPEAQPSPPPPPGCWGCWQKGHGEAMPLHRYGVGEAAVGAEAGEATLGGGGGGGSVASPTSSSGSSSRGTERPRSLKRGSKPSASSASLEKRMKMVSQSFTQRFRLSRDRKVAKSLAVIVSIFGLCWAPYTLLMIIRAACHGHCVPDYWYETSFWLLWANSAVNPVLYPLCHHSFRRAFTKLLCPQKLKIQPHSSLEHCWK

A word on the IC50: it is the midpoint of a concentration-inhibition curve. Higher therefore signals weaker potency in that assay. Usually Ki stands for a dissociation constant, usually derived from enzyme kinetics or from competition with a known ligand. A low value points to a stronger hold on the target. At Histamine H3 receptor [1], `O=C(NCCc1ccc(OCCN2CCC(F)C2)c(Br)c1)c1cc(Br)cs1` (stereo in doubt; 18d) displayed a concentration for half-maximal inhibition (IC50) of 2520 nM and a Ki of 1150 nM.
Turning to `CN1CCCC(COc2ccc(CCNC(=O)c3ccc[nH]3)cc2Br)C1` (centres undefined), the inhibition constant (Ki) on Histamine H3 receptor [1] stood at 1520 nM. This counts as single-digit micromolar.
For the compound `O=C(NCCc1ccc(OCCN2CCOCC2)c(Br)c1)c1cc(Br)cs1`, on Histamine H3 receptor [1], the IC50 amounted to 30400 nM and the Ki came out at 13500 nM.
On Histamine H3 receptor [1], `Cn1cccc1C(=O)NCCc1ccc(OCCN2CCOCC2)c(Br)c1` gave a half-maximal inhibitory concentration (IC50) of 39600 nM and a Ki of 17600 nM.
With `O=C(NCCc1ccc(OCCN2CCCC2)c(Br)c1)c1cc(Br)cs1`, at Histamine H3 receptor [2], the Ratio Ki turned out to be 13. Further, the Ratio IC50 on Histamine H3 receptor [3] came out at 13.
On Histamine H3 receptor [1], `CC1CCCN1CCOc1ccc(CCNC(=O)c2cc(Br)cs2)cc1Br` (single isomer, unassigned; enantiomer 1) had an IC50 of 710 nM and a Ki of 310 nM.
On Histamine H3 receptor [1], `CC1CCCN1CCOc1ccc(CCNC(=O)c2cc(Br)cs2)cc1Br` (single isomer, unassigned; enantiomer 2) had an IC50 of 750 nM and an inhibition constant (Ki) of 330 nM.
For `O=C(NCCc1ccc(OCCN2CCCC2)c(Br)c1)c1nccs1`, at Histamine H3 receptor [1], the IC50 is 70 nM and the Ki was 30 nM. Also, at Histamine H3 receptor [2], the Ratio Ki is 33. Besides, the Ratio IC50 on Histamine H3 receptor [3] is 33.
As to `CN1CCCC(COc2ccc(CCNC(=O)c3cccn3C)cc2Br)C1` (centres undefined), on Histamine H3 receptor [1], the IC50 amounted to 3620 nM and the Ki came to 1650 nM.
`O=C(NCCc1ccc(OCCN2CCCC2)c(Br)c1)c1cnco1`: at Histamine H3 receptor [1], the IC50 came to 80 nM and the Ki is 30 nM.
Regarding `CN(C)CCCOc1ccc(CCNC(=O)c2ccc(Br)o2)cc1Br`, the affinity on Histamine H3 receptor [1] corresponds to a Ki of 2290 nM.
As to `O=C(NCCc1ccc(OCCN2CCOCC2)c(Br)c1)c1cc(Br)c[nH]1`, on Histamine H3 receptor [1], the IC50 was found to be 29100 nM and the Ki was determined as 12900 nM.
On Histamine H3 receptor [1], `O=C(NCCc1ccc(OCCN2CCC(F)C2)c(Br)c1)c1cc(Br)cs1` (single isomer, unassigned; enantiomer 1) gave an IC50 of 2110 nM and an inhibition constant (Ki) of 1100 nM.
In the same order, the values of `O=C(NCCc1ccc(OCCN2CCCC2)c(Br)c1)c1cncs1` are 260 nM and 120 nM.
Compound `CN(C)CCOc1ccc(CCNC(=O)c2ccc[nH]2)cc1Br` registered a Ki on Histamine H3 receptor [1] of 1550 nM.
Take `CN1CCCC(COc2ccc(CCNC(=O)c3cc(Br)c[nH]3)cc2Br)C1` (centres undefined): at Histamine H3 receptor [1], the half-maximal inhibitory concentration (IC50) was 2940 nM and the Ki stood at 1330 nM.
On Histamine H3 receptor [1], `O=C(NCCc1ccc(OCCN2CCOCC2)c(Br)c1)c1ccc(Br)o1` returned a concentration for half-maximal inhibition (IC50) of 73200 nM and a Ki of 32500 nM.
Taken in the same sequence, the figures for `CN(C)CCCOc1ccc(CCNC(=O)c2cccn2C)cc1Br` were 3990 nM and 1760 nM.
Regarding `CN(C)CCOc1ccc(CCNC(=O)c2cccn2C)cc1Br`, the Ki at Histamine H3 receptor [1] was found to be 2130 nM.
On Histamine H3 receptor [1], `CN1CCCC(COc2ccc(CCNC(=O)c3cc(Br)cs3)cc2Br)C1` (centres undefined) displayed an IC50 of 3730 nM and a Ki of 1250 nM.
For the compound `CN(C)CCOc1ccc(CCNC(=O)c2cc(Br)cs2)cc1Br`, on Histamine H3 receptor [1], the half-maximal inhibitory concentration (IC50) came to 1520 nM.
On Histamine H3 receptor [1], `CN1CCCC(COc2ccc(CCNC(=O)c3ccc(Br)o3)cc2Br)C1` (centres undefined) showed a half-maximal inhibitory concentration (IC50) of 4560 nM.
On Histamine H3 receptor [1], `O=C(NCCc1ccc(OCCN2CCOCC2)c(Br)c1)c1ccc[nH]1` had an IC50 of 59200 nM and an inhibition constant (Ki) of 26400 nM.
Turning to `Cn1cccc1C(=O)NCCc1ccc(OCCN2CCCC2)c(Br)c1`, the half-maximal inhibitory concentration (IC50) at Histamine H3 receptor [1] came out at 310 nM.
Regarding `CN(C)CCCOc1ccc(CCNC(=O)c2ccc[nH]2)cc1Br`, at Histamine H3 receptor [1], the Ki turned out to be 1360 nM. This lies in the single-digit micromolar range.
